SMILES strings stand for the structures. “And” between values parts separate entries of the source, which are not always exact repeats. Identical values can stand only once. Toxic doses and inconclusive results are not listed. Non-standard residues stand in square brackets, D forms with d. Residues, ends and D or L forms follow the SMILES beside them. *: point of attachment. Cbz = O=C(OCc1ccccc1)*; Nva = CCC[CH](N)C(=O)O

The test system of this assay is CD2F1 mice, L1210 leukemia ip, survival T/C. As to the kind of experiment: NCI In Vivo Anticancer Drug Screen. Data for tumor model L1210 Leukemia (intraperitoneal) in CD2F1 (CDF1) mice. The following applies: endpoint: mean survival time, higher = longer survival. Put shortly:
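Tumor-bearing mice (transplanted tumor) were split into treated and vehicle control groups, and the measured endpoint of each treated group was divided by that of its vehicle controls.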

The mark [1] stands for this setting: dose: 100.0 mg/kg/injection, schedule: Q01DX009 (ip), vehicle: Klucel (hydroxypropylcellulose) (HPC).
The mark [2] stands for this setting: dose: 100.0 mg/kg/injection, schedule: Q04DX003 (ip), vehicle: saline with Tween-80.
Setting [3] is: dose: 200.0 mg/kg/injection, schedule: Q04DX003 (ip), vehicle: saline with Tween-80.
Where [4] appears, read: dose: 400.0 mg/kg/injection, schedule: Q04DX003 (ip), vehicle: saline with Tween-80.
The mark [5] stands for this setting: dose: 75.0 mg/kg/injection, schedule: Q01DX001 (ip), vehicle: saline.
[6] abbreviates: dose: 150.0 mg/kg/injection, schedule: Q01DX001 (ip), vehicle: saline.
Setting [7] is: dose: 25.0 mg/kg/injection, schedule: Q01DX009 (ip), vehicle: saline with Tween-80.
Where [8] appears, read: dose: 50.0 mg/kg/injection, schedule: Q01DX009 (ip), vehicle: saline with Tween-80.
Setting [9] is: dose: 100.0 mg/kg/injection, schedule: Q01DX009 (ip), vehicle: saline with Tween-80.
[10] abbreviates: dose: 25.0 mg/kg/injection, schedule: Q01DX009 (ip), vehicle: saline.
[11] abbreviates: dose: 50.0 mg/kg/injection, schedule: Q01DX009 (ip), vehicle: saline.
Where [12] appears, read: dose: 100.0 mg/kg/injection, schedule: Q01DX009 (ip), vehicle: saline.
The mark [13] stands for this setting: dose: 75.0 mg/kg/injection, schedule: Q01DX001 (ip), vehicle: other.
[14] abbreviates: dose: 150.0 mg/kg/injection, schedule: Q01DX001 (ip), vehicle: other.
[15] abbreviates: dose: 300.0 mg/kg/injection, schedule: Q01DX001 (ip), vehicle: other.
Where [16] appears, read: dose: 50.0 mg/kg/injection, schedule: Q04DX003 (ip), vehicle: saline.
[17] abbreviates: dose: 200.0 mg/kg/injection, schedule: Q04DX003 (ip), vehicle: saline.
Where [18] appears, read: dose: 100.0 mg/kg/injection, schedule: Q04DX002 (ip), vehicle: saline with Tween-80.
Setting [19] is: dose: 200.0 mg/kg/injection, schedule: Q04DX002 (ip), vehicle: saline with Tween-80.
[20] abbreviates: dose: 400.0 mg/kg/injection, schedule: Q04DX002 (ip), vehicle: saline with Tween-80.
The mark [21] stands for this setting: dose: 100.0 mg/kg/injection, schedule: Q04DX003 (ip), vehicle: saline.

As to `CN(C)N=Nc1ccccc1C(N)=O`, the T/C (dose: 18.8 mg/kg/injection, schedule: Q01DX009 (ip), vehicle: Klucel (hydroxypropylcellulose) (HPC)) was 106 % of control; the T/C (dose: 37.5 mg/kg/injection, schedule: Q01DX009 (ip), vehicle: Klucel (hydroxypropylcellulose) (HPC)) was 117 % of control and 106 % of control; the T/C (dose: 75.0 mg/kg/injection, schedule: Q01DX009 (ip), vehicle: Klucel (hydroxypropylcellulose) (HPC)) is 116 % of control and 123 % of control; the T/C under setting [1] was 151 % of control; the T/C (dose: 150.0 mg/kg/injection, schedule: Q01DX009 (ip), vehicle: Klucel (hydroxypropylcellulose) (HPC)) was 123 % of control and 86 % of control and 101 % of control.

Turning to `CC(C(C(=O)O)S(=O)(=O)O)C(C(=O)O)S(=O)(=O)O` (stereo not drawn), the T/C by setting is: (dose: 12.5 mg/kg/injection, schedule: Q01DX001 (ip), vehicle: other) 91 % of control; (dose: 25.0 mg/kg/injection, schedule: Q01DX001 (ip), vehicle: other) 95 % of control; (dose: 50.0 mg/kg/injection, schedule: Q01DX001 (ip), vehicle: other) 98 % of control.

As for `CC(=O)CC(C)=NCC(C)N=C(C)CC(C)=O.c1cc[c]([Sn][c]2ccccc2)cc1` (stereo not drawn), the T/C is 93 % of control (dose: 2.5 mg/kg/injection, schedule: Q01DX009 (ip), vehicle: saline with Tween-80); 98 % of control (dose: 5.0 mg/kg/injection, schedule: Q01DX001 (ip), vehicle: saline with Tween-80); 107 % of control (dose: 5.0 mg/kg/injection, schedule: Q01DX009 (ip), vehicle: saline with Tween-80); 103 % of control (dose: 10.0 mg/kg/injection, schedule: Q01DX001 (ip), vehicle: saline with Tween-80).

For `S=C(CSc1ccccc1)Nc1cccc2ccccc12`, the T/C is, setting by setting: under setting [2], 101 % of control; under setting [3], 91 % of control; under setting [4], 93 % of control.

Consider `O=C(OCCCCI)c1ccccc1`, for which the T/C is, setting by setting: under setting [5], 97 % of control; under setting [6], 102 % of control; (dose: 300.0 mg/kg/injection, schedule: Q01DX001 (ip), vehicle: saline) 97 % of control.

For the compound `Nc1ccc(Br)cc1-c1nc(N)c2cc(Br)ccc2n1`, the T/C is 104 % of control (dose: 50.0 mg/kg/injection, schedule: Q01DX009 (ip), vehicle: Klucel (hydroxypropylcellulose) (HPC)); 93 % of control (dose: 100.0 mg/kg/injection, schedule: Q01DX001 (ip), vehicle: Klucel (hydroxypropylcellulose) (HPC)); 89 % of control under setting [1]; 103 % of control (dose: 200.0 mg/kg/injection, schedule: Q01DX001 (ip), vehicle: Klucel (hydroxypropylcellulose) (HPC)); 100 % of control (dose: 200.0 mg/kg/injection, schedule: Q01DX009 (ip), vehicle: Klucel (hydroxypropylcellulose) (HPC)); 100 % of control (dose: 400.0 mg/kg/injection, schedule: Q01DX001 (ip), vehicle: Klucel (hydroxypropylcellulose) (HPC)).

With `CN1CCc2cc3c(cc2C(=O)Cc2ccc4c(c2C1)OCO4)OCO3`, the T/C under setting [7] is 98 % of control, the T/C under setting [8] is 101 % of control and the T/C under setting [9] was 103 % of control.

Regarding `c1ccc(C2=C(c3ccccc3)C(c3ccccc3)(c3ccccc3)c3ccccc32)cc1`, the T/C under setting [2] is 101 % of control, the T/C under setting [3] is 98 % of control and the T/C under setting [4] is 98 % of control.

As to `N/C(=N\O)c1cn(C2OC(CO)C(O)C2O)c2ncncc12` (stereo not drawn), the T/C is, setting by setting: under setting [10], 159 % of control; under setting [11], 168 % of control; under setting [12], 102 % of control.

For `CC(=O)Nc1ccc(/C=C/[N+](=O)[O-])cc1`, the T/C by setting is: under setting [13], 105 % of control; under setting [14], 108 % of control; under setting [15], 114 % of control.

Regarding `CNC1(Cc2ccc(F)cc2)CCC1`, the T/C was 100 % of control under setting [10], 102 % of control under setting [11] and 100 % of control under setting [12].

On to `C#CCOC1CCCCC1O` (stereo not drawn), for which the T/C (dose: 100.0 mg/kg/injection, schedule: Q04DX003 (ip), vehicle: acetone) is 101 % of control.

Consider `COc1cc2cc3c4cc(OC)c(OC)cc4cc[n+]3c(C)c2cc1OC` (tested in a mixture with another compound), for which the T/C under setting [11] was 95 % of control, the T/C under setting [16] is 91 % of control, the T/C under setting [17] is 122 % of control and the T/C under setting [4] was 88 % of control.

As for `COc1ccc(COC(=O)Nc2ccc([N+](=O)[O-])cc2)cc1`, the T/C is, setting by setting: under setting [18], 96 % of control; under setting [19], 96 % of control; under setting [20], 96 % of control.

For `CCCCCCCCCCCCOC(=O)C[n+]1cccc(C(=O)NCc2ccccc2)c1`, the T/C is 108 % of control (dose: 6.25 mg/kg/injection, schedule: Q04DX003 (ip), vehicle: saline with Tween-80); 104 % of control (dose: 12.5 mg/kg/injection, schedule: Q04DX003 (ip), vehicle: saline with Tween-80); 106 % of control (dose: 25.0 mg/kg/injection, schedule: Q04DX003 (ip), vehicle: saline with Tween-80).

Regarding `CCOc1c(Cl)cc(Cl)cc1C(c1ccc(Cl)cc1S(=O)(=O)O)c1cc(Cl)cc(Cl)c1OCC`, the T/C is, setting by setting: under setting [7], 98 % of control; under setting [8], 89 % of control; under setting [9], 86 % of control.

With `O=C(O)c1cc(Cl)c(C(=O)O)cc1Cl`, the T/C under setting [2] was 96 % of control, the T/C under setting [3] is 102 % of control and the T/C under setting [4] was 105 % of control.

As to `CCCC(NC(=O)C(C)NC(=O)OCc1ccccc1)C(N)=O` (stereo not drawn) (Cbz-Ala-[Nva]-NH2; configuration not given here), the T/C was 90 % of control under setting [9]; 92 % of control (dose: 200.0 mg/kg/injection, schedule: Q01DX009 (ip), vehicle: saline with Tween-80); 92 % of control (dose: 400.0 mg/kg/injection, schedule: Q01DX009 (ip), vehicle: saline with Tween-80).

With `Cc1ccc2c(ccc(/C=C/c3ccc(O)c4ncccc34)[n+]2C)c1`, the T/C is 117 % of control (dose: 12.5 mg/kg/injection, schedule: Q01DX009 (ip), vehicle: saline with Tween-80); 122 % of control under setting [7]; 105 % of control under setting [8]; 119 % of control (dose: 66.0 mg/kg/injection, schedule: Q04DX003 (ip), vehicle: saline with Tween-80); 119 % of control under setting [2]; 119 % of control (dose: 150.0 mg/kg/injection, schedule: Q04DX003 (ip), vehicle: saline with Tween-80).

Turning to `CCOC(=O)c1ccccc1C(C)CC` (stereo not drawn), the T/C is, setting by setting: under setting [13], 98 % of control; under setting [14], 97 % of control; under setting [15], 95 % of control.

For `NCCc1cc(O)c(O)cc1O`, the T/C is 93 % of control under setting [11] and 104 % of control under setting [12].

For `CC(=O)O.[La]`, where the note is “dose: 200.0 mg/kg/injection, schedule: Q01DX001 (ip), vehicle: saline”, the T/C is 94 % of control.

In the case of `CCOC(=O)C1=C2CC(C)(C)CCC2(C)CCC1=O` (stereo not drawn), the T/C by setting is: under setting [18], 100 % of control; under setting [19], 100 % of control; under setting [20], 88 % of control.

For the compound `CC(=O)Nc1ccc(C=O)cc1`, the T/C by setting is: under setting [16], 102 % of control; under setting [21], 100 % of control; under setting [17], 100 % of control.

Turning to `COC(=O)C1CCN1C(C)C` (stereo not drawn), the T/C (dose: 12.5 mg/kg/injection, schedule: Q01DX009 (ip), vehicle: other) is 106 % of control; the T/C (dose: 25.0 mg/kg/injection, schedule: Q01DX009 (ip), vehicle: other) was 106 % of control; the T/C (dose: 50.0 mg/kg/injection, schedule: Q01DX009 (ip), vehicle: other) was 96 % of control; the T/C (dose: 100.0 mg/kg/injection, schedule: Q01DX009 (ip), vehicle: other) was 98 % of control; the T/C (dose: 200.0 mg/kg/injection, schedule: Q01DX009 (ip), vehicle: other) was 98 % of control.

Consider `CCOC(OCC)/C(C)=N/[N+](C)(C)C`, for which the T/C was 107 % of control under setting [5] and 98 % of control under setting [6].

Consider `COc1cccc(C(=O)NC[n+]2ccccc2)c1`, for which, under setting [21], the T/C was 110 % of control.

As to `OC(CS)C(c1ccccc1)c1ccccc1` (stereo not drawn), the T/C under setting [2] is 98 % of control, the T/C under setting [3] is 93 % of control and the T/C under setting [4] is 96 % of control.

For the origin of these results see PubChem BioAssay AID256 (DTP/NCI, 2004).
